Data: patent US10206394B2, “Herbicidal compounds” (Syngenta Participations AG, priority 2014, dated 2019)
Where two headings read alike, the source gives them in different places.

Key:
Experiment in all cases: Glasshouse assay for herbicidal activity (pre- and post-emergence), percentage phytotoxicity
Type in all cases: in vivo
[1] = test system: Alopecurus myosuroides (ALOMY); settings: Alopecurus myosuroides
Method: (§1) Test—Glasshouse Assay for Herbicidal Activity
(§2) Seeds of a variety of monocotyledonous and dicotyledonous test plants are sown in standard soil in pots. The plants are cultivated for one day (for pre-emergence (PRE)) or for about 12 days (for post-emergence (POST)) under controlled conditions in a glasshouse (warm climate species at 24/18° C., cool climate species at 20/16° C., both at day/night; 16 hours light; 65% humidity).
(§3) The test plants are then grown on, in a glasshouse (greenhouse) under controlled conditions (warm climate species at 24/18° C., cool climate species at 20/16° C., both at day/night; 16 hours light; 65% humidity) and are watered twice daily. 15 days after application of the test herbicide (15 DAA) (for post-emergence), and 20 days after application of the test herbicide (20 DAA) (for pre-emergence), the test plants are evaluated visually, and an assessed percentage phytotoxicity score is given for each herbicidal application on each plant species (with 100%=total damage to plant; 0%=no damage to plant).
(§4) The plant species tested are as follows: Alopecurus myosuroides (ALOMY), Avena fatua (AVEFA), Lolium perenne (LOLPE), Echinochloa crus-galli (ECHCG).

[2] = test system: Avena fatua (AVEFA); settings: Avena fatua
Method: as §1, §2, §3, §4

[3] = test system: Echinochloa crus-galli (ECHCG); settings: Echinochloa crus-galli
Method: as §1, §2, §3, §4

[4] = test system: Lolium perenne (LOLPE); settings: Lolium perenne
Method: as §1, §2, §3, §4

[5] = post-emergence, 360 h, POST-emergence, rate 250 g/ha, visual score 15 DAA (100%=total damage, 0%=no damage), read-out: Post-emergence herbicidal activity (percentage phytotoxicity) ALOMY POST
[6] = pre-emergence, 480 h, PRE-emergence, rate 250 g/ha, visual score 20 DAA (100%=total damage, 0%=no damage), read-out: Pre-emergence herbicidal activity (percentage phytotoxicity) ALOMY PRE
[7] = post-emergence, 360 h, POST-emergence, rate 250 g/ha, visual score 15 DAA (100%=total damage, 0%=no damage), read-out: Post-emergence herbicidal activity (percentage phytotoxicity) AVEFA POST
[8] = pre-emergence, 480 h, PRE-emergence, rate 250 g/ha, visual score 20 DAA (100%=total damage, 0%=no damage), read-out: Pre-emergence herbicidal activity (percentage phytotoxicity) AVEFA PRE
[9] = post-emergence, 360 h, POST-emergence, rate 250 g/ha, visual score 15 DAA (100%=total damage, 0%=no damage), read-out: Post-emergence herbicidal activity (percentage phytotoxicity) ECHCG POST
[10] = pre-emergence, 480 h, PRE-emergence, rate 250 g/ha, visual score 20 DAA (100%=total damage, 0%=no damage), read-out: Pre-emergence herbicidal activity (percentage phytotoxicity) ECHCG PRE
[11] = post-emergence, 360 h, POST-emergence, rate 250 g/ha, visual score 15 DAA (100%=total damage, 0%=no damage), read-out: Post-emergence herbicidal activity (percentage phytotoxicity) LOLPE POST
[12] = pre-emergence, 480 h, PRE-emergence, rate 250 g/ha, visual score 20 DAA (100%=total damage, 0%=no damage), read-out: Pre-emergence herbicidal activity (percentage phytotoxicity) LOLPE PRE

Row | SMILES | pest or weed control at 250 g/ha [1, 5] [%] | pest or weed control at 250 g/ha [1, 6] [%] | pest or weed control at 250 g/ha [2, 7] [%] | pest or weed control at 250 g/ha [2, 8] [%] | pest or weed control at 250 g/ha [3, 9] [%] | pest or weed control at 250 g/ha [3, 10] [%] | pest or weed control at 250 g/ha [4, 11] [%] | pest or weed control at 250 g/ha [4, 12] [%] | further results
1 | Cc1cc(OCC(F)(F)F)cc(C)c1C1C(=O)CC(CC(=O)NCC2CC2)C1=O (stereo not shown) [Compound B210] | 100 | 100 | 90 | 80 | 100 | 100 | 90 | 100 | –
2 | Cc1cc(-c2ncc(F)cc2F)cc(C)c1C1C(=O)CC(CC(=O)NO)C1=O (stereo not shown) [Compound B403] | – | – | – | – | – | – | – | – | pest or weed control at 250 g/ha ([1]; post-emergence, 360 h, Rate 250 g/ha, post-emergence, visual assessment 15 DAA, 100%=total damage, 0%=no damage, read-out: Post-emergence herbicidal activity (percentage phytotoxicity) ALOMY POST): 90%; pest or weed control at 250 g/ha ([1]; pre-emergence, 480 h, Rate 250 g/ha, pre-emergence, visual assessment 20 DAA, 100%=total damage, 0%=no damage, read-out: Pre-emergence herbicidal activity (percentage phytotoxicity) ALOMY PRE): 60%; pest or weed control at 250 g/ha ([2]; post-emergence, 360 h, Rate 250 g/ha, post-emergence, visual assessment 15 DAA, 100%=total damage, 0%=no damage, read-out: Post-emergence herbicidal activity (percentage phytotoxicity) AVEFA POST): 100%; pest or weed control at 250 g/ha ([2]; pre-emergence, 480 h, Rate 250 g/ha, pre-emergence, visual assessment 20 DAA, 100%=total damage, 0%=no damage, read-out: Pre-emergence herbicidal activity (percentage phytotoxicity) AVEFA PRE): 50%; pest or weed control at 250 g/ha ([3]; post-emergence, 360 h, Rate 250 g/ha, post-emergence, visual assessment 15 DAA, 100%=total damage, 0%=no damage, read-out: Post-emergence herbicidal activity (percentage phytotoxicity) ECHCG POST): 100%; pest or weed control at 250 g/ha ([3]; pre-emergence, 480 h, Rate 250 g/ha, pre-emergence, visual assessment 20 DAA, 100%=total damage, 0%=no damage, read-out: Pre-emergence herbicidal activity (percentage phytotoxicity) ECHCG PRE): 0%; pest or weed control at 250 g/ha ([4]; post-emergence, 360 h, Rate 250 g/ha, post-emergence, visual assessment 15 DAA, 100%=total damage, 0%=no damage, read-out: Post-emergence herbicidal activity (percentage phytotoxicity) LOLPE POST): 80%; pest or weed control at 250 g/ha ([4]; pre-emergence, 480 h, Rate 250 g/ha, pre-emergence, visual assessment 20 DAA, 100%=total damage, 0%=no damage, read-out: Pre-emergence herbicidal activity (percentage phytotoxicity) LOLPE PRE): 20%
3 | CCc1cc(-n2cc(Cl)cn2)cc(C)c1C1C(=O)CC(CC(=O)NCc2cccc(Cl)c2)C1=O (stereo not shown) [Compound B231] | 90 | 50 | 100 | 20 | 90 | 80 | 90 | 80 | –
4 | Cc1cc(-c2ncc(Cl)cn2)cc(C)c1C1C(=O)CC(CC(=O)NCc2cccs2)C1=O (stereo not shown) [Compound A139] | – | – | – | – | – | – | – | – | pest or weed control at 250 g/ha ([1]; post-emergence, 360 h, Rate 250 g/ha, post-emergence, assessed visually 15 DAA, 100%=total damage, 0%=no damage, read-out: Post-emergence herbicidal activity (percentage phytotoxicity) ALOMY POST): 10%; pest or weed control at 250 g/ha ([1]; pre-emergence, 480 h, Rate 250 g/ha, pre-emergence, assessed visually 20 DAA, 100%=total damage, 0%=no damage, read-out: Pre-emergence herbicidal activity (percentage phytotoxicity) ALOMY PRE): 0%; pest or weed control at 250 g/ha ([2]; post-emergence, 360 h, Rate 250 g/ha, post-emergence, assessed visually 15 DAA, 100%=total damage, 0%=no damage, read-out: Post-emergence herbicidal activity (percentage phytotoxicity) AVEFA POST): 30%; pest or weed control at 250 g/ha ([2]; pre-emergence, 480 h, Rate 250 g/ha, pre-emergence, assessed visually 20 DAA, 100%=total damage, 0%=no damage, read-out: Pre-emergence herbicidal activity (percentage phytotoxicity) AVEFA PRE): 0%; pest or weed control at 250 g/ha ([3]; post-emergence, 360 h, Rate 250 g/ha, post-emergence, assessed visually 15 DAA, 100%=total damage, 0%=no damage, read-out: Post-emergence herbicidal activity (percentage phytotoxicity) ECHCG POST): 20%; pest or weed control at 250 g/ha ([3]; pre-emergence, 480 h, Rate 250 g/ha, pre-emergence, assessed visually 20 DAA, 100%=total damage, 0%=no damage, read-out: Pre-emergence herbicidal activity (percentage phytotoxicity) ECHCG PRE): 90%; pest or weed control at 250 g/ha ([4]; post-emergence, 360 h, Rate 250 g/ha, post-emergence, assessed visually 15 DAA, 100%=total damage, 0%=no damage, read-out: Post-emergence herbicidal activity (percentage phytotoxicity) LOLPE POST): 10%; pest or weed control at 250 g/ha ([4]; pre-emergence, 480 h, Rate 250 g/ha, pre-emergence, assessed visually 20 DAA, 100%=total damage, 0%=no damage, read-out: Pre-emergence herbicidal activity (percentage phytotoxicity) LOLPE PRE): 0%
5 | C#CCN(C)C(=O)CC1CC(=O)C(c2c(C)cc(/C=C/C)cc2C)C1=O (stereo not shown) [Compound B250] | 100 | 50 | 90 | 50 | 100 | 90 | 100 | 80 | –
